Tests used:
[1] = molecular target: T1, human phosphodiesterase 5 (PDE 5) (Homo sapiens, UniProt O76074); assay: Inhibition of human phosphodiesterase 5 (PDE 5); assay type: biochemical; conditions: PDE 5 preparation from human platelets; in some cases means of individual determinations
T1 construct: PDE 5 preparations are obtained from human platelets by disruption; from tissue; host or cells: human platelets
In short: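 IC50 comes from percent inhibition over a 1:3 series with final levels of 4 to 0.0018 μM. Reaction: tritiated cGMP tracer (0.025 μCi) with platelet-derived, Mono Q-purified enzyme, 1 h at room temperature in Tris pH 7.5, under 70% turnover. Read-out by scintillation proximity beads.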

[2] = molecular target: T2, recombinant guanylate cyclase reporter cell line (Rattus norvegicus, UniProt P19686+P20595); assay: Effect on a recombinant guanylate cyclase reporter cell line; assay type: cell-based; conditions: MEC = minimum effective concentration; in some cases means of individual determinations
T2 construct: expressed in transfected cells
T2 sequence (P19686 1-690): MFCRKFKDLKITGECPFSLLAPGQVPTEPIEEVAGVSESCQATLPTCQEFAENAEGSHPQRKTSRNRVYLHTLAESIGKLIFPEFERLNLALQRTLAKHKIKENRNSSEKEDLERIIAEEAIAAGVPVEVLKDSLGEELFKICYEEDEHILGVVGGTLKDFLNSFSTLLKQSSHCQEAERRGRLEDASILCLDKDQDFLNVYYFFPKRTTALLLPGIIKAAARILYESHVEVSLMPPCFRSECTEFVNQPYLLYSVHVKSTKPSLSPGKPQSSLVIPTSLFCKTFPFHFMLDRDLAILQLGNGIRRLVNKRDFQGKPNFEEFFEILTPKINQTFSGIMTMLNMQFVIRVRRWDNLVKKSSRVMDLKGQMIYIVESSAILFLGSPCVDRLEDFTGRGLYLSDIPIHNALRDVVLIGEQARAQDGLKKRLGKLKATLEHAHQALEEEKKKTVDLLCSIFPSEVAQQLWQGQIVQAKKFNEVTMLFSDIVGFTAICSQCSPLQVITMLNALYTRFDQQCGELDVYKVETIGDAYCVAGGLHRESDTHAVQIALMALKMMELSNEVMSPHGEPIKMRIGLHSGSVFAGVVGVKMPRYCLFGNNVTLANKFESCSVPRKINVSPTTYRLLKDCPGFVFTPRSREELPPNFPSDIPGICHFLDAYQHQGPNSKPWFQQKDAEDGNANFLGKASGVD
T2 sequence (P20595 1-619): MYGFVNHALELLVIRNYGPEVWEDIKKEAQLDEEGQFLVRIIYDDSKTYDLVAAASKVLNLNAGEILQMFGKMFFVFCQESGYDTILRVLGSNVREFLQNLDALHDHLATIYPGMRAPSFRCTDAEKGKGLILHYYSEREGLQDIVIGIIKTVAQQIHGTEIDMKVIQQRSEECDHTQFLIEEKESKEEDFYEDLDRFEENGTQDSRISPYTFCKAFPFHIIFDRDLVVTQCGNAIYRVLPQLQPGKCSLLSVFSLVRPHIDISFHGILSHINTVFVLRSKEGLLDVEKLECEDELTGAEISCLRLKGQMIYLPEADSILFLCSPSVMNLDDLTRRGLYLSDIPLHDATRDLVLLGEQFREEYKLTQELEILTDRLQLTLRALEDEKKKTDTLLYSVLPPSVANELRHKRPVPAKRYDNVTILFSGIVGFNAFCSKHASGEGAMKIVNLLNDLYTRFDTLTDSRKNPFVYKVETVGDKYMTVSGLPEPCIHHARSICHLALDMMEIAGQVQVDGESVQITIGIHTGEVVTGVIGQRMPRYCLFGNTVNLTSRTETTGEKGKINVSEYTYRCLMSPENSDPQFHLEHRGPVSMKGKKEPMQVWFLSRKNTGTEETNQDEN
In short: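 Values are reported as MEC, sometimes averaged over individual determinations. The test system is a reporter cell line expressing recombinant rat guanylate cyclase.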

Compound | IC50 [1] [nM] | MEC [2] [µM]
CC1(C)C(=O)Nc2nc(-c3nn(Cc4ccccc4F)c4ncccc34)nc(C(=O)Nc3cnccn3)c21 [Example 108, 2-[1-(2-fluorobenzyl)-1H-pyrazolo[3,4-b]pyridin-3-yl]-5,5-dimethyl-6-oxo-N-(pyrazin-2-yl)-6,7-dihydro-5H-pyrrolo[2,3-d]pyrimidine-4-carboxamide] | 25 | 0.3
Cn1cnc(NC(=O)c2nc(-c3nn(Cc4ccccc4F)c4ncccc34)nc3c2C(C)(C)C(=O)N3)n1 [Example 109, 2-[1-(2-fluorobenzyl)-1H-pyrazolo[3,4-b]pyridin-3-yl]-5,5-dimethyl-N-(1-methyl-1H-1,2,4-triazol-3-yl)-6-oxo-6,7-dihydro-5H-pyrrolo[2,3-d]pyrimidine-4-carboxamide] | 39 | 0.3
CN(CC1CC1)C(=O)c1nc(-c2nn(Cc3ccccc3F)c3ncccc23)nc2c1C(C)(C)C(=O)N2 [Example 111, N-(cyclopropylmethyl)-2-[1-(2-fluorobenzyl)-1H-pyrazolo[3,4-b]pyridin-3-yl]-N,5,5-trimethyl-6-oxo-6,7-dihydro-5H-pyrrolo[2,3-d]pyrimidine-4-carboxamide] | 710 | 0.01
CC(C)N(C)C(=O)c1nc(-c2nn(Cc3ccccc3F)c3ncccc23)nc2c1C(C)(C)C(=O)N2 [Example 112, 2-[1-(2-fluorobenzyl)-1H-pyrazolo[3,4-b]pyridin-3-yl]-N,5,5-trimethyl-6-oxo-N-(propan-2-yl)-6,7-dihydro-5H-pyrrolo[2,3-d]pyrimidine-4-carboxamide] | 93 | 0.03
Cc1cccnc1NC(=O)c1nc(-c2nn(Cc3ccccc3F)c3ncccc23)nc2c1C(C)(C)C(=O)N2 [Example 113, 2-[1-(2-fluorobenzyl)-1H-pyrazolo[3,4-b]pyridin-3-yl]-5,5-dimethyl-N-(3-methylpyridin-2-yl)-6-oxo-6,7-dihydro-5H-pyrrolo[2,3-d]pyrimidine-4-carboxamide] | 44 | 0.1
CC1(C)C(=O)Nc2nc(-c3nn(Cc4ccccc4F)c4ncccc34)nc(C(=O)NCCO)c21 [Example 114, 2-[1-(2-fluorobenzyl)-1H-pyrazolo[3,4-b]pyridin-3-yl]-N-(2-hydroxyethyl)-5,5-dimethyl-6-oxo-6,7-dihydro-5H-pyrrolo[2,3-d]pyrimidine-4-carboxamide] | 15 | 0.3
CC1(C)C(=O)Nc2nc(-c3nn(Cc4ccccc4F)c4ncccc34)nc(C(=O)NCc3ccccc3)c21 [Example 115, N-benzyl-2-[1-(2-fluorobenzyl)-1H-pyrazolo[3,4-b]pyridin-3-yl]-5,5-dimethyl-6-oxo-6,7-dihydro-5H-pyrrolo[2,3-d]pyrimidine-4-carboxamide] | 41 | 0.1
CC1(C)C(=O)Nc2nc(-c3nn(Cc4ccccc4F)c4ncccc34)nc(C(=O)NCc3ccccn3)c21 [Example 117, 2-[1-(2-fluorobenzyl)-1H-pyrazolo[3,4-b]pyridin-3-yl]-5,5-dimethyl-6-oxo-N-(pyridin-2-ylmethyl)-6,7-dihydro-5H-pyrrolo[2,3-d]pyrimidine-4-carboxamide] | 25 | 0.1
CC1(C)C(=O)Nc2nc(-c3nn(Cc4ccccc4F)c4ncccc34)nc(C(=O)NCc3ccncc3)c21 [Example 118, 2-[1-(2-fluorobenzyl)-1H-pyrazolo[3,4-b]pyridin-3-yl]-5,5-dimethyl-6-oxo-N-(pyridin-4-ylmethyl)-6,7-dihydro-5H-pyrrolo[2,3-d]pyrimidine-4-carboxamide] | 21 | 0.1
Cc1ccncc1NC(=O)c1nc(-c2nn(Cc3ccccc3F)c3ncccc23)nc2c1C(C)(C)C(=O)N2 [Example 119, 2-[1-(2-fluorobenzyl)-1H-pyrazolo[3,4-b]pyridin-3-yl]-5,5-dimethyl-N-(4-methylpyridin-3-yl)-6-oxo-6,7-dihydro-5H-pyrrolo[2,3-d]pyrimidine-4-carboxamide] | 10 | 0.3
CN(CCO)C(=O)c1nc(-c2nn(Cc3ccccc3F)c3ncccc23)nc2c1C(C)(C)C(=O)N2 [Example 120, 2-[1-(2-fluorobenzyl)-1H-pyrazolo[3,4-b]pyridin-3-yl]-N-(2-hydroxyethyl)-N,5,5-trimethyl-6-oxo-6,7-dihydro-5H-pyrrolo[2,3-d]pyrimidine-4-carboxamide] | 220 | 0.1
CCCCNC(=O)c1nc(-c2nn(Cc3ccccc3F)c3ncccc23)nc2c1C(C)(C)C(=O)N2 [Example 121, N-butyl-2-[1-(2-fluorobenzyl)-1H-pyrazolo[3,4-b]pyridin-3-yl]-5,5-dimethyl-6-oxo-6,7-dihydro-5H-pyrrolo[2,3-d]pyrimidine-4-carboxamide] | 27 | 0.3
CC(C)CNC(=O)c1nc(-c2nn(Cc3ccccc3F)c3ncccc23)nc2c1C(C)(C)C(=O)N2 [Example 122, 2-[1-(2-fluorobenzyl)-1H-pyrazolo[3,4-b]pyridin-3-yl]-5,5-dimethyl-N-(2-methylpropyl)-6-oxo-6,7-dihydro-5H-pyrrolo[2,3-d]pyrimidine-4-carboxamide] | 20 | 0.1
CCOCCCNC(=O)c1nc(-c2nn(Cc3ccccc3F)c3ncccc23)nc2c1C(C)(C)C(=O)N2 [Example 123, N-(3-ethoxypropyl)-2-[1-(2-fluorobenzyl)-1H-pyrazolo[3,4-b]pyridin-3-yl]-5,5-dimethyl-6-oxo-6,7-dihydro-5H-pyrrolo[2,3-d]pyrimidine-4-carboxamide] | 26 | 0.1
CC1(C)C(=O)Nc2nc(-c3nn(Cc4ccccc4F)c4ncccc34)nc(C(=O)NC3CCCC3)c21 [Example 126, N-cyclopentyl-2-[1-(2-fluorobenzyl)-1H-pyrazolo[3,4-b]pyridin-3-yl]-5,5-dimethyl-6-oxo-6,7-dihydro-5H-pyrrolo[2,3-d]pyrimidine-4-carboxamide] | 6 | 0.3
COCCNC(=O)c1nc(-c2nn(Cc3ccccc3F)c3ncccc23)nc2c1C(C)(C)C(=O)N2 [Example 127, 2-[1-(2-fluorobenzyl)-1H-pyrazolo[3,4-b]pyridin-3-yl]-N-(2-methoxyethyl)-5,5-dimethyl-6-oxo-6,7-dihydro-5H-pyrrolo[2,3-d]pyrimidine-4-carboxamide] | 16 | 0.1
CN(C)CCNC(=O)c1nc(-c2nn(Cc3ccccc3F)c3ncccc23)nc2c1C(C)(C)C(=O)N2 [Example 128, N-[2-(dimethylamino)ethyl]-2-[1-(2-fluorobenzyl)-1H-pyrazolo[3,4-b]pyridin-3-yl]-5,5-dimethyl-6-oxo-6,7-dihydro-5H-pyrrolo[2,3-d]pyrimidine-4-carboxamide] | 330 | 1
CCNC(=O)c1nc(-c2nn(Cc3ccccc3F)c3ncccc23)nc2c1C(C)(C)C(=O)N2 [Example 129, N-ethyl-2-[1-(2-fluorobenzyl)-1H-pyrazolo[3,4-b]pyridin-3-yl]-5,5-dimethyl-6-oxo-6,7-dihydro-5H-pyrrolo[2,3-d]pyrimidine-4-carboxamide] | 10 | 0.1
CCCCCNC(=O)c1nc(-c2nn(Cc3ccccc3F)c3ncccc23)nc2c1C(C)(C)C(=O)N2 [Example 131, 2-[1-(2-Fluorobenzyl)-1H-pyrazolo[3,4-b]pyridin-3-yl]-5,5-dimethyl-6-oxo-N-pentyl-6,7-dihydro-5H-pyrrolo[2,3-d]pyrimidine-4-carboxamide] | 38 | 0.3
